Data: patent US20150231199A1, “PEPTIDES AND THEIR USES” (priority 2012, published 2015)
Values after ≈ are worked out from the molar mass of the structure shown. Where two headings read alike, the source gives them in different places. Marks after values point to notes of the source that are not given here. Positions of bridges follow the written chain, without caps; N, C: chain ends. Residues, ends and D or L forms follow the SMILES beside them. Chains are numbered I, II in the order given. *: point of attachment. Palmitoyl = CCCCCCCCCCCCCCCC(=O)*; Decanoyl = CCCCCCCCCC(=O)*; Octanoyl = CCCCCCCC(=O)*

What was measured:
[1] = test system: Escherichia coli ATCC27922; assay type: cell-based
Method: (§1) V2-dimer and all lipopeptides (FIG. 1A) used in this study were purchased from Mimotopes. All peptides were prepared by dissolving in sterile water to make 1000 μg/mL stock solutions. Minimum Inhibitory Concentration (MIC) determination was carried out in Mueller Hinton Broth (MHB) using the broth macro-dilution method as described by the Clinical and Laboratory Standards Institute (CLSI). Then, cation-adjusted MHB (CA-MHB) was used to prepare serial two fold dilutions of the compounds in test tubes. The concentration of the inoculums suspension was also adjusted to approximately 5×10^5 Colony Forming Units (CFU)/mL using MHB. Bacteria were incubated with the compounds for 24 hours at 35° C. prior to reading. In this study, Gram-positive strains used were Staphylococcus aureus DM4001 and Methicillin-resistant Staphylococcus aureus (MRSA) DM9808. Gram-negative strains used were Klebsiella pneumoniae DM4299, Pseudomonas aeruginosa ATCC23155 and Escherichia coli ATCC27922.

[2] = test system: Klebsiella pneumoniae DM4299; assay type: cell-based
Method: as §1

Staphylococcus aureus = assay type: cell-based
Method: as §1
(§2) Methods used are as described in Example 1 above.

Pseudomonas aeruginosa = assay type: cell-based
Method: as §1, §2

[3] = test system: Methicillin-resistant Staphylococcus aureus (MRSA); assay type: cell-based
Method: as §1, §2

[4] = Dissolution in PBS for hemolytic assay; assay type: physicochemical
Method: (§3) Fresh red blood cells (RBCs) of New Zealand white rabbits were used for this experiment. The RBCs obtained were centrifuged at 3000 rpm for 10 min. Supernatant was removed and washed twice with sterile PBS Buffer (20 mM, 100 mM NaCl, pH 7). The RBCs were further diluted to 8% stock solution in PBS. Peptides were dissolved in PBS with desired stock concentrations. When compounds were mixed with RBCs, desired concentration of 4% RBCs was obtained. For C14V2D and C16V2D, they were dissolved in Dimethylformamide ([…]; DMF) with desired stock concentrations. When compounds were mixed with RBCs, desired concentration of 4% RBCs and 0.5% DMF was obtained. DMF concentration of <1% was used as it had negligible hemolytic activity on RBCs. The mixtures were added to 1.5 mL centrifuge tubes and incubated at 37° C. for 1 h. After incubation, the blood was centrifuged at 3000 rpm for 3 min at 4° C. 100 μL of the supernatant was transferred into transparent 96-well plate. The absorbance was measured at 576 nm using a microplate reader (TECAN Infinite 200M Pro). 2% Triton X-100 was used as positive control. PBS was used as negative controls. The amount of hemoglobin released was calculated using the following equation: […]

[5] = test system: red blood cells (RBCs) of New Zealand white rabbits; assay: in vitro; assay type: cell-based, rabbit
Method: as §3

S. aureus (DM4001) = assay: Membrane damage, LIVE/DEAD BacLight assay; assay type: cell-based, Staphylococcus aureus; details: FIG. 7
Method: The extent of bacterial membrane damage was assessed using LIVE/DEAD BacLight Bacterial Viability Kit (Molecular Probes, Invitrogen) which utilises both SYTO 9 green-fluorescent nucleic acid stain and the red-fluorescent nucleic acid stain, propidium iodide in their different ability to penetrate healthy bacterial cells. SYTO9 dye could penetrate bacteria with intact and damaged membrane but propidium iodide could only penetrate bacteria with damaged bacteria thereby causing a reduction in the SYTO 9 stain's fluorescence when both dyes are present. Thus, bacteria with intact cell membranes stain fluorescent green whereas bacteria with damaged membranes stain fluorescent red. Briefly, clinical isolate S. aureus (DM4001) was collected at an early exponential growth phase and washed twice with 0.9% saline solution (live culture). A portion of the culture was resuspended in 70% 2-propanol to prepare dead culture with fully permeabilised membrane. […] Using TECAN infinite 200 microplate reader, the wavelength for excitation was fixed at 485 nm to obtain the emission spectrum from 500 nm to 700 nm. The green to red ratio (G/R) was determined using the following formula: [formula] % of membrane damage was quantified using a G/R ratio standard curve generated using bacterial mixture of 0, 10%, 50%, 90% and 100% live culture suspension. […]

in vitro [6] = assay type: cell-based, rabbit; details: New Zealand white, rabbit, pH 7
Method: as §3

[7] = In vivo topical (corneal) toxicity test; details: C57BL6, mouse, topical or ocular, mice, 5 times/day for 4 days, read-out: Tolerate concentration
Method: (§4) Wild type C57BL6 (6-8 weeks old) (20-30 gram weigh) mice purchased from National University of Singapore were used for this study. All animals were utilized after 1 week acclimatization and put in air conditioned rooms with controlled temperature (23±2° C.), 12 hours light-dark cycle and humidity (55-60%). All animals were conducted in compliance with the Association for Research in Vision and Ophthalmology (ARVO) statement for the Use of Animals in Ophthalmic, and Vision Research, the guide for the Care and Use of laboratory animals (National Research Council) and under the supervision of Singhealth Experimental Medical Centre (SEMC). To investigate the corneal toxicity, three normal and healthy wild type mice had been chosen randomly and treated with 1 mg/ml and 3 mg/ml of C8V2D in 10 mM PBS. C8V2D was applied topically 5 times/day for 4 days. Cornea clarity had been checked by slit lamp microscopy for everyday follow-up to day 4 after application. To study the acute systemic toxicity, C8V2D was administrated via intravenous and intraperitoneal routes. Two mice have been chosen for each route and moitored carefully through 24 hours to observe and record any mortality, morbidity or toxicity signs. Gross necropsy would be done on any mortality or moribund animal.

[8] = In vivo acute systemic toxicity test; details: C57BL6, mouse, mice, read-out: Tolerate concentration
Method: as §4

in vitro [9] = assay type: cell-based; details: human
Method: Cells were plated at a density of 10,000 cells per well in a 96-well opaque white plate (SPL Life Sciences Inc. Korea). Test compounds of various concentrations and controls were added to appropriate wells such that the final volume is 100 μl in each well. After 4 hours of exposure to the test compounds, the plates were removed from 37° C. incubator and equilibrated to 22° C. for 30 minutes. One hundred microliters of CellTiter-Glo reagent (Promega Inc. USA) was added to each well and the ATP assay was performed according to manufacturer's instructions. Luminescence was assessed using a micro-plate reader (Tecan Infinite 200 Pro, Switzerland). The cells exposed to 1% Triton X-100 were used as a positive control. The percent cell viable of each compound was determined using the formula below (L=Luminescence detected):
% Viability=[(Lnegative controls)−(Lexperiments)]/[(Lnegative controls)−(Lpositive controls)]×100

in vitro [10] = assay type: cell-based; details: human; remark: listed apart in the source
Method: The cytotoxicity of individual compounds screened was determined by the lactate dehydrogenase (LDH) assay. In brief, human corneal fibroblast cells were plated at a density of 10,000 cells per well in a 96-well opaque white plate (SPL Life Sciences Inc). Test compounds of various concentrations and controls were added to appropriate wells such that the final volume is 100 μl in each well. After 4 hours of exposure to the test compounds, the plates were removed from 37° C. incubator and equilibrated to 22° C. for 30 minutes. One hundred microliters of Cyto-TOX One reagent (Promega Inc. USA) was added to each well and the LDH assay was performed according to manufacturer's instructions. Fluorescence was assessed at an excitation wavelength of 560 nm and an emission wavelength of 590 nm using a micro-plate reader (Tecan Infinite 200 Pro, Switzerland). The cells exposed to 1% Triton X-100 were used as a positive control and treated as maximum releasing of LDH. The percent specific cytotoxicity of each compound was determined using the formula below (I=intensity):
% Cytotoxicity=[(Iexperiments)−(Inegative controls)]/[Ipositive controls)−(Inegative controls)]×100

Compound	MIC [1]	MIC [2]	MIC (Staphylococcus aureus)	MIC (Pseudomonas aeruginosa)	MIC [3]	dissolution in PBS [4]	HC10 [5]	membrane integrity (S. aureus (DM4001))	hemolysis at 1 h, 20 mg/mL (in vitro [6])	MTD at 96 h [7]	HC10 ([5]; red cells of rabbit, 1 h)	MTD at 24 h ([8]; Intravenous (i.v.))	MTD at 24 h ([8]; ip, Intraperitoneal (i.p.))	CC50 at 4 h (in vitro [9])	CC50 at 4 h (in vitro [10])
CCCCCCCCCCCCCCCC(=O)N[C@@H](CCCNC(=N)N)C(=O)NCC(=O)N[C@@H](CCCNC(=N)N)C(=O)N[C@@H](CCCCN)C(=O)N[C@H](C(=O)N[C@H](C(=O)NCCCC[C@H](NC(=O)[C@@H](NC(=O)[C@@H](NC(=O)[C@H](CCCCN)NC(=O)[C@H](CCCNC(=N)N)NC(=O)CNC(=O)[C@H](CCCNC(=N)N)NC(=O)CCCCCCCCCCCCCCC)C(C)C)C(C)C)C(=O)N[C@@H](CCCCN)C(=O)O)C(C)C)C(C)C [Peptide C16-V2D, (C15H31—CO—NH—RGRKVV)2KK] (I: Palmitoyl-RGRKVVKK-OH / II: Palmitoyl-RGRKVV; amide I:7-II:C; C-terminus assumed)	9.03 µM (≈ 19.4 µg/mL)	>36.13 µM	36.13 µM (≈ 77.4 µg/mL)	>36.13 µM	18.07 µM (≈ 38.7 µg/mL)	^cValue in DMF. C16V2D could not dissolve in PBS.	^c114.0 ± 37.9 ug/mL	reduced membrane integrity							
CCCCCCCCCC(=O)N[C@@H](CCCNC(=N)N)C(=O)NCC(=O)N[C@@H](CCCNC(=N)N)C(=O)N[C@@H](CCCCN)C(=O)N[C@H](C(=O)N[C@H](C(=O)N[C@@H](CCCNC(=N)N)C(=O)N[C@@H](CCCNC(=N)N)C(=O)NCCCC[C@H](NC(=O)[C@H](CCCNC(=N)N)NC(=O)[C@H](CCCNC(=N)N)NC(=O)[C@@H](NC(=O)[C@@H](NC(=O)[C@H](CCCCN)NC(=O)[C@H](CCCNC(=N)N)NC(=O)CNC(=O)[C@H](CCCNC(=N)N)NC(=O)CCCCCCCCC)C(C)C)C(C)C)C(=O)N[C@@H](CCCCN)C(=O)O)C(C)C)C(C)C [Peptide C10-V2D, (C9H19—CO—NH—RGRKVVRR)2KK] (I: Decanoyl-RGRKVVRRKK-OH / II: Decanoyl-RGRKVVRR; amide I:9-II:C)	4.80 µM (≈ 12.5 µg/mL)	2.40 µM (≈ 6.24 µg/mL)	2.40 µM (≈ 6.24 µg/mL)	2.40 µM (≈ 6.24 µg/mL)	1.20 µM (≈ 3.12 µg/mL)		>2000^a ug/mL		3.3%						
CCCCCCCC(=O)N[C@@H](CCCNC(=N)N)C(=O)NCC(=O)N[C@@H](CCCNC(=N)N)C(=O)N[C@@H](CCCCN)C(=O)N[C@H](C(=O)N[C@H](C(=O)N[C@@H](CCCNC(=N)N)C(=O)N[C@@H](CCCNC(=N)N)C(=O)NCCCC[C@H](NC(=O)[C@H](CCCNC(=N)N)NC(=O)[C@H](CCCNC(=N)N)NC(=O)[C@@H](NC(=O)[C@@H](NC(=O)[C@H](CCCCN)NC(=O)[C@H](CCCNC(=N)N)NC(=O)CNC(=O)[C@H](CCCNC(=N)N)NC(=O)CCCCCCC)C(C)C)C(C)C)C(=O)N[C@@H](CCCCN)C(=O)O)C(C)C)C(C)C [Peptide C8-V2D, (C7H15—CO—NH—RGRKVVRR)2KK] (I: Octanoyl-RGRKVVRRKK-OH / II: Octanoyl-RGRKVVRR; amide I:9-II:C)	4.92 µM (≈ 12.5 µg/mL)	2.46 µM (≈ 6.26 µg/mL)	2.46 µM (≈ 6.26 µg/mL)	2.46 µM (≈ 6.26 µg/mL)	1.23 µM (≈ 3.13 µg/mL)					≥ 3 mg/kg	>2000 µg/mL	6.25 mg/kg	100 mg/kg	> 2000 µM	> 3000 µM
